Reference: ChEMBL document CHEMBL1146917, “Discovery and structure-activity relationship of 2-phenyl-oxazole-4-carboxamide derivatives as potent apoptosis inducers” (Bioorg Med Chem Lett, 2006)
Values after ≈ are worked out from the molar mass of the structure shown. Active and inactive are the calls of the source. The rule behind the calls is not given here.

system: DLD-1; experiment: Induction of apoptosis in human DLD1 cells assessed as activation of caspases by HTS assay; type: functional, cell-based; conditions: not given

SMILES	EC50
O=C(Cc1ccccc1)NCc1ccc(-c2nc(C(=O)N3CCCCCC3)co2)cc1	0.033 µM
O=C(Cc1ccccc1F)NCc1ccc(-c2nc(C(=O)N3CCCCC3)co2)cc1	0.065 µM
O=C(Cc1ccccc1)NCc1ccc(-c2nc(C(=O)N3CCCC(F)(F)C3)co2)cc1	0.02 µM
O=C(Cc1ccccc1)NCc1ccc(-c2nc(C(=O)N3CCCC3)co2)cc1	0.553 µM
O=C1CCCN(C(=O)c2coc(-c3ccc(CNC(=O)Cc4ccccc4)cc3)n2)C1	0.235 µM
O=C(Cc1ccccc1)NCc1ccc(-c2nc(C(=O)N3CCC(CO)CC3)co2)cc1	0.196 µM
COC1CCCN(C(=O)c2coc(-c3ccc(CNC(=O)Cc4ccccc4)cc3)n2)C1 (stereo unspecified)	0.259 µM
O=C(Cc1ccccc1)NCc1ccc(-c2nc(C(=O)N3CCCC(Cl)C3)co2)cc1 (stereo unspecified)	0.119 µM
O=C(Cc1cccs1)NCc1ccc(-c2nc(C(=O)N3CCCCC3)co2)cc1	0.059 µM
O=C1CCN(C(=O)c2coc(-c3ccc(CNC(=O)Cc4ccccc4)cc3)n2)CC1	0.115 µM
COC1CCN(C(=O)c2coc(-c3ccc(CNC(=O)Cc4ccccc4)cc3)n2)CC1	5.23 µM
O=C(Cc1ccccc1)NCc1ccc(-c2nc(C(=O)N3CC4CC4C3)co2)cc1 (stereo unspecified)	0.318 µM
C[C@@H]1CC[C@H](C)N1C(=O)c1coc(-c2ccc(CNC(=O)Cc3ccccc3)cc2)n1	0.034 µM
O=C(Cc1ccc(Cl)cc1)NCc1ccc(-c2nc(C(=O)N3CCCCC3)co2)cc1	0.274 µM
CC1CCCN(C(=O)c2coc(-c3ccc(CNC(=O)Cc4ccccc4)cc3)n2)C1 (stereo unspecified)	0.193 µM
O=C(Cc1cccc(O)c1)NCc1ccc(-c2nc(C(=O)N3CCCCC3)co2)cc1	0.139 µM
O=C(Cc1ccccc1)NCc1ccc(-c2nc(C(=O)N3CCC(O)CC3)co2)cc1	0.15 µM

SMILES	EC50
O=C(Cc1ccccc1)NCc1ccc(-c2nc(C(=O)N3CC=CCC3)co2)cc1	0.108 µM
O=C(Cc1ccccc1)NCc1ccc(-c2nc(C(=O)N3CCC(F)CC3)co2)cc1	0.304 µM
O=C(Cc1ccccc1)NCc1ccc(-c2nc(C(=O)N3CCCC(F)C3)co2)cc1 (stereo unspecified)	0.085 µM
O=C(Cc1cccc(F)c1)NCc1ccc(-c2nc(C(=O)N3CCCCC3)co2)cc1	0.072 µM
O=C(Cc1ccc(OC(F)(F)F)cc1)NCc1ccc(-c2nc(C(=O)N3CCCCC3)co2)cc1	0.27 µM
Cc1ccc(CC(=O)NCc2ccc(-c3nc(C(=O)N4CCCCC4)co3)cc2)cc1	0.142 µM
O=C(Cc1ccccc1)NCc1ccc(-c2nc(C(=O)N3CCC(F)(F)CC3)co2)cc1	0.979 µM
O=C(Cc1ccccc1)NCc1ccc(-c2nc(C(=O)N3CCCCC3)co2)cc1	0.065 µM
O=C(Cc1ccccc1)NCc1ccc(-c2nc(C(=O)N3CCC(Cl)CC3)co2)cc1	0.492 µM
O=C(Cc1ccccc1)NCc1ccc(-c2nc(C(=O)N3CCCCCCC3)co2)cc1	0.108 µM
O=C(Cc1ccccc1)NCc1ccc(-c2nc(C(=O)N3CCCC(O)C3)co2)cc1 (stereo unspecified)	0.196 µM
O=C(Cc1ccc(F)cc1)NCc1ccc(-c2nc(C(=O)N3CCCCC3)co2)cc1	0.233 µM
O=C(Cc1ccc(O)cc1)NCc1ccc(-c2nc(C(=O)N3CCCCC3)co2)cc1	0.073 µM
O=C(Cc1ccccc1O)NCc1ccc(-c2nc(C(=O)N3CCCCC3)co2)cc1	1.01 µM
O=C(Cc1cccc(Cl)c1)NCc1ccc(-c2nc(C(=O)N3CCCCC3)co2)cc1	0.533 µM
CC1CCN(C(=O)c2coc(-c3ccc(CNC(=O)Cc4ccccc4)cc3)n2)CC1	0.258 µM

system: DLD-1; experiment: Growth inhibition of human DLD1 cells; type: functional; conditions: not given

SMILES	GI50
O=C(Cc1ccccc1)NCc1ccc(-c2nc(C(=O)N3CCCC(F)(F)C3)co2)cc1	0.015 µM
O=C(Cc1cccs1)NCc1ccc(-c2nc(C(=O)N3CCCCC3)co2)cc1	0.075 µM
O=C(Cc1ccc(OC(F)(F)F)cc1)NCc1ccc(-c2nc(C(=O)N3CCCCC3)co2)cc1	0.229 µM
O=C(Cc1ccccc1)NCc1ccc(-c2nc(C(=O)N3CCCCC3)co2)cc1	0.258 µM

system: not listed separately; experiment: Solubility of the compound; type: physicochemical; conditions: not given

SMILES	solubility
O=C(Cc1ccccc1)NCc1ccc(-c2nc(C(=O)N3CCCC(F)(F)C3)co2)cc1	< 10 µM
O=C(Cc1cccs1)NCc1ccc(-c2nc(C(=O)N3CCCCC3)co2)cc1	29 µM (≈ 11.9 µg/mL)
O=C(Cc1ccc(OC(F)(F)F)cc1)NCc1ccc(-c2nc(C(=O)N3CCCCC3)co2)cc1	44 µM (≈ 21.4 µg/mL)
O=C(Cc1ccccc1)NCc1ccc(-c2nc(C(=O)N3CCCCC3)co2)cc1	47 µM (≈ 19 µg/mL)

system: DLD-1; experiment: Activity against caspase-mediated PARP cleavage in human DLD1 cells at 1 uM after 48 hrs by Western blot analysis; type: functional, cell-based; conditions: not given

SMILES	Activity
O=C(Cc1ccc(OC(F)(F)F)cc1)NCc1ccc(-c2nc(C(=O)N3CCCCC3)co2)cc1	Active

system: DLD-1; experiment: Activity against DNA laddering in DLD1 cells at 1 uM after 48 hrs; type: functional, cell-based; conditions: Homo sapiens

SMILES	Activity
O=C(Cc1ccc(OC(F)(F)F)cc1)NCc1ccc(-c2nc(C(=O)N3CCCCC3)co2)cc1	Active

system: DLD-1; experiment: Inhibition of tumor growth in BALB/c nude mouse implanted with DLD1 cells at 50 mg/kg, ip, qd; type: functional; conditions: DLD-1, ip

SMILES	inhibition in vivo at 50 mg/kg
O=C(Cc1ccc(OC(F)(F)F)cc1)NCc1ccc(-c2nc(C(=O)N3CCCCC3)co2)cc1	21%

system: DLD-1; experiment: Inhibition of tumor growth in BALB/c nude mouse implanted with DLD1 cells at 100 mg/kg, ip, qd; type: functional; conditions: DLD-1, ip

SMILES	inhibition in vivo at 100 mg/kg
O=C(Cc1ccc(OC(F)(F)F)cc1)NCc1ccc(-c2nc(C(=O)N3CCCCC3)co2)cc1	38%

system: DLD-1; experiment: Inhibition of tumor growth in BALB/c nude mouse implanted with DLD1 cells at 50 mg/kg, ip, bid; type: functional; conditions: DLD-1, ip

SMILES	inhibition in vivo at 50 mg/kg
O=C(Cc1ccc(OC(F)(F)F)cc1)NCc1ccc(-c2nc(C(=O)N3CCCCC3)co2)cc1	63%
